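The compound was tested at five concentrations on cells cultured in 96-well plates, with a 48-hour exposure period. TGI: concentration producing complete growth inhibition.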
Key:
Experiment in all cases: NCI anticancer screen, dose series, 48 h
[1] = tested on: MDA-MB-231 breast
[2] = tested on: RPMI-8226 leukemia
[3] = tested on: SF-295 CNS
[4] = tested on: NCI-H226 lung
[5] = tested on: NCI-H460 lung
[6] = tested on: HOP-62 NSCLC
[7] = tested on: SF-268 CNS
[8] = tested on: SK-MEL-28 melanoma
[9] = tested on: CAKI-1 renal
[10] = tested on: COLO 205 colon
[11] = tested on: BT-549 breast
[12] = tested on: HL-60(TB) leukemia
[13] = tested on: A549 NSCLC
[14] = tested on: OVCAR-4 ovarian
[15] = tested on: HCC-2998 colon
[16] = tested on: SNB-75 CNS
[17] = tested on: A498 renal
[18] = tested on: SR leukemia
[19] = tested on: K-562 leukemia
[20] = tested on: HOP-92 NSCLC
[21] = tested on: SK-OV-3 ovarian
[22] = tested on: OVCAR-3 ovarian
[23] = tested on: SK-MEL-5 melanoma
[24] = tested on: OVCAR-8 ovarian
[25] = tested on: M14 melanoma
[26] = tested on: NCI-H522 lung
[27] = tested on: TK-10 renal
[28] = tested on: OVCAR-5 ovarian
[29] = tested on: MOLT-4 leukemia
[30] = tested on: CCRF-CEM leukemia
[31] = tested on: T-47D breast
[32] = tested on: DU-145 prostate
[33] = tested on: RXF 393 renal
[34] = tested on: NCI/ADR-RES ovarian
[35] = tested on: EKVX NSCLC
[36] = tested on: HS 578T breast
[37] = tested on: MDA-MB-435
[38] = tested on: PC-3 prostate
[39] = tested on: MALME-3M melanoma
[40] = tested on: 786-0 renal
[41] = tested on: ACHN renal
[42] = tested on: HCT-116 colon
[43] = tested on: U251 CNS
[44] = tested on: MCF7 breast
[45] = tested on: SN12C renal
[46] = tested on: UO-31 renal
[47] = tested on: SNB-19 CNS
[48] = tested on: SK-MEL-2 melanoma
[49] = tested on: HCT-15 colon
[50] = tested on: SF-539 CNS
[51] = tested on: NCI-H23 lung
[52] = tested on: SW-620 colon
[53] = tested on: LOX IMVI melanoma
[54] = tested on: MDA-N
[55] = tested on: HT29 colon
[56] = tested on: UACC-257 melanoma
[57] = tested on: KM12 colon
[58] = tested on: IGROV1 ovarian

Measured: TGI

COc1ccc(/C=C2/N=C(N/N=C\C(O)C(O)C(O)C(O)CO)NC2=O)cc1 (stereo not drawn)
> 100 µM: all assays above

— PubChem BioAssay (NCI)
